Each structure is given as a SMILES string. ≈ marks a conversion by molar mass, not a printed value. Like-named read-outs stand apart in the source and are kept apart here.

Data set [1] concerns the target T1, H3R (Homo sapiens, UniProt Q9Y5N1). In words: cAMP inhibition by FRET-EPAC biosensor in HEK293-EPAC cells stably expressing H3R. It counts as cell-based. Details: expressed in transfected cells; host or cells: HEK293 cells stably expressing EPAC-cAMP FRET biosensor and H3R. Conditions: for EC50: inhibition of cAMP induced by 10 nM isoprenaline, FRET after 20 min. How it is done:
H3R primarily couples to Gαi protein, which upon activation causes a decrease in intracellular cAMP levels via the inhibition of adenylate cyclase. Therefore, the HEK-EPAC cells were pre-treated with 10 nM of the beta2 adrenergic receptor (β2AR) agonist isoprenaline before H3R stimulation to enhance the basal intracellular cAMP levels via β2AR-Gαs activation. As anticipated, the H3R selective agonist immepip reduced the isoprenaline-induced cAMP accumulation, as detected by an increased FRET (fluorescence resonance energy transfer) signal in the EPAC (exchange protein directly activated by cAMP) biosensor (Figure 3A).
HEK293T cells (ATTC, CRL-1573) were cultured in DMEM supplemented with 10% FBS and 1% P/S in a humidified incubator at 37 °C with 5% CO2. The HEK293 cell line stably expressing an EPAC-cAMP FRET biosensor was kindly provided by Dr. M. Zimmermann (Interax Biotech, Basal, Switzerland). HEK293-EPAC cells stably co-expressing the H3R (GenBank accession number NM_007232.3) were generated as previously described.
EPAC-H3R cells were seeded into black 96-well plates with 50,000 cells per well one day before the experiment. The next day, the culture medium was replaced with HBSS. Subsequently, 10 nM isoprenaline (dissolved in HBSS supplemented with 20 mM thiourea) was added for 10 min incubation to elevate basal cAMP levels. Fluorescence resonance energy transfer (FRET) measurements were recorded by CLARIOstar plate reader in real-time or at 20 min after ligand stimulation.
(§1) All data are shown as mean ± S.D. from three individual experiments performed in triplicate. Figures were generated and data analyzed by Prism 9. In radioligand binding assays, the competition binding curves were fitted by ‘one-site—Fit Ki’ to obtain the equilibrium dissociation constants of unlabeled ligands (Ki) by Cheng-Prusoff equation [46]. In FRET-EPAC assays, the ligand-induced cAMP inhibition was quantified by FRET ratios, dividing the FRET signal at 530 nm by the signal at 480 nm. The response was represented as ΔFRET ratios, obtained by the analysis of ‘Fractional difference: (Value—Baseline)/Baseline’. Then the concentration–response curves were fitted using the model: ‘log(agonist) vs. response (three parameters)’ to obtain potency (pEC50).
Figure 3 Optical modulation of VUF25657-induced cAMP inhibition in EPAC-H3R cells. Real time modulation of isoprenaline-induced cAMP acumination in HEK-EPAC cells by 1 μM immepip (A). Modulation of isoprenaline-induced cAMP acumination in HEK-EPAC cells by increasing concentrations of VUF25657 (B). HEK-EPAC cells stably expressing H3R were pre-stimulated with 10 nM isoprenaline for 10 min before ligand addition. The FRET signal of the EPAC-sensor was measured after 20 min treatment of indicated ligands. VUF25657 was either kept in dark or pre-irradiated at 560 nm for 3 min to release the BODIPY cage. Data are mean ± S.D. from four independent experiments performed, each in triplicate.

Data set [2] in a line: Photo-uncaging at 560 nm followed by LC-MS with internal standard. It counts as physicochemical. Conditions: VUF25657 3.2 μM in Tris-HCl buffer. How it is done:
(§2) Next, the photochemical properties of the caged VUF25657 and VUF25678 were investigated. […] Based on the photochemical stability results in Figure S2, photo characterizations of VUF25657 and VUF25678 were performed under red LED light. Due to the low absorbance of immepip and 4-methylhistamine at 230 and 254 nm, a quantitative analysis method based on mass (MS) detection was employed. First, calibration curves of monitored compounds with the corresponding reference compound of the same molecular weight were built (Figure S3). Then, after illumination, the reference compounds were added to LCMS samples as internal standards. Based on the MS signal areas, the concentrations of caged compounds and parent compounds could be monitored. In Tris-HCl buffer (50 mM, pH 7.4), the absorption maximum (λmax) was determined to be 551 nm for VUF25657 (Figure 1A) and 546 nm for VUF25678 (Figure S4A). […] After 180 s of illumination, the concentration of immepip reached 0.92 μM, amounting to 29% uncaging efficiency. Further illumination led to a decreased immepip concentration (for example, 0.53 μM at 20 min). One potential explanation for this could be the reaction of immepip with side products or intermediates formed during the uncaging process.
Figure 1 Photo-uncaging followed by UV–Vis (ultraviolet-visible) and LC–MS analysis. (A) VUF25657 (3.2 μM) was illuminated under 560 nm in Tris-HCl buffer (50 mM, pH 7.4)/1% DMSO at room temperature and a UV–Vis spectrum was measured at intervals. Only the 350–750 nm region is shown; (B) VUF25657 (3.2 μM) was illuminated under green LED light in Tris-HCl buffer (50 mM, pH 7.4)/1% DMSO at 37 °C and LC–MS analysis was performed at different time points using an internal standard.

The target in data set [3] is T1, H3R. In words: [3H]NAMH competition binding, membranes of HEK293T cells transiently expressing H3R. Details: expressed in transfected cells; host or cells: HEK293T (transient, PEI); membranes. How it is done:
(§3) Both GPCRs were transiently expressed in HEK293T cells.
(§4) Membranes were collected from HEK293T cells transiently transfected with H3R or H4R by PEI method. In brief, 2 million HEK293T cells were seeded into a 10 cm dish one day before transfection. The next day, the cells were transfected with 2.5 μg cDNA encoding H3R (GenBank accession number AF140538) or H4R (GenBank accession number AY136745) supplemented with 2.5 μg empty pcDEF3 [45] plasmid using 20 μg PEI. Two days after transfection, the transfected HEK293T cells were detached using ice-cold PBS, and the membrane pellets were subsequently collected by centrifuging at 1932× g at 4 °C for 10 min.
For competition binding assays, the tested compounds were pre-irradiated to reach the uncaged state. In brief, 0.3 mM stock of photocaged ligand (dissolved in DMSO) was divided into two samples, one of which was subsequently diluted in Tris-HCl buffer (50 mM, pH 7.4) to 3 μM and then irradiated by 560 nm to reach the uncaged state, as confirmed by LC–MS, and the other sample was kept in dark to retain its caged state. The prepared membrane pellets expressing H3R or H4R were resuspended in Tris-HCl buffer (50 mM, pH 7.4) and disrupted by 5 s sonication to make membrane suspension. Next, all the following handling was performed under near-infrared light. […] Following one hour of incubation with continuous shaking at 225 rpm at 25 °C, the reaction was terminated by transferring the mixture to GF/C filter plates that were pre-soaked with a solution containing 0.5% PEI and washed with cold Tris-HCl buffer. After drying for 30 min at 55 °C, the radioactivity remaining on the filters was quantified using a Microbeta Wallac Trilux scintillation counter, following the addition of scintillation liquid with a two-hour delay.
as §1
Figure 2 Displacement binding curves of parent, caged, and uncaged ligands for H3R (A) and H4R (B). […] Caged ligands were either kept in dark or pre-irradiated at 560 nm for 3 min for VUF25657 and 5 min for VUF25678 to achieve the uncaged state. Data shown are mean ± S.D. from three or four independent experiments, each performed in triplicate.

Data set [4] is described as follows: Nephelometry (aqueous solubility). It counts as physicochemical. To be noted: 50 mM Tris-HCl buffer with 1% DMSO, pH 7.4, aqueous buffer, kinetic from dmso stock, in the dark, read-out: aqueous solubility (limit).
Data set [5] can be described thus: UV-Vis absorption in Tris-HCl buffer. Type of data set: physicochemical. Conditions: Tris-HCl buffer (50 mM, pH 7.4). The protocol:
as §2, with “Further illumination led to a decreased immepip concentration (for example, 0.53 μM at 20 min). One potential explanation for this could be the reaction of immepip with side products or intermediates formed during the uncaging process.” left out
Figure 1 Photo-uncaging followed by UV–Vis (ultraviolet-visible) and LC–MS analysis. (A) VUF25657 (3.2 μM) was illuminated under 560 nm in Tris-HCl buffer (50 mM, pH 7.4)/1% DMSO at room temperature and a UV–Vis spectrum was measured at intervals. […]
measured at intervals; (B) […] (3.2 μM) was illuminated under green LED light in Tris-HCl buffer (50 […]

The target in a further data set is T2, human H4R (Homo sapiens, UniProt Q9H3N8).
T2 construct: expressed in transfected cells; host or cells: HEK293T (transient, PEI); membranes
Briefly: [3H]histamine competition binding, membranes of HEK293T cells transiently expressing H4R. The protocol:
as §3, §4
For competition binding assays, the tested compounds were pre-irradiated to reach the uncaged state. […] After drying for 30 min at 55 °C, the radioactivity remaining on the filters was quantified using a Microbeta Wallac Trilux scintillation counter, following the addition of scintillation liquid with a two-hour delay.
All data are shown as mean ± S.D. from three individual experiments performed in triplicate. Figures were generated and data analyzed by Prism 9. […] In FRET-EPAC assays, the ligand-induced cAMP inhibition was quantified by FRET ratios, dividing the FRET signal at 530 nm by the signal at 480 nm. […]

In data set [6] the target is T1, H3R. Details: expressed in transfected cells; host or cells: HEK293 cells stably expressing EPAC-cAMP FRET biosensor and H3R; method as in PMID 30249614. Conditions: saturation binding of the radioligand to H3R; cited from earlier work.
[7] abbreviates: after 180 s of illumination at 560 nm.

T1 sequence (Q9Y5N1 whole entry): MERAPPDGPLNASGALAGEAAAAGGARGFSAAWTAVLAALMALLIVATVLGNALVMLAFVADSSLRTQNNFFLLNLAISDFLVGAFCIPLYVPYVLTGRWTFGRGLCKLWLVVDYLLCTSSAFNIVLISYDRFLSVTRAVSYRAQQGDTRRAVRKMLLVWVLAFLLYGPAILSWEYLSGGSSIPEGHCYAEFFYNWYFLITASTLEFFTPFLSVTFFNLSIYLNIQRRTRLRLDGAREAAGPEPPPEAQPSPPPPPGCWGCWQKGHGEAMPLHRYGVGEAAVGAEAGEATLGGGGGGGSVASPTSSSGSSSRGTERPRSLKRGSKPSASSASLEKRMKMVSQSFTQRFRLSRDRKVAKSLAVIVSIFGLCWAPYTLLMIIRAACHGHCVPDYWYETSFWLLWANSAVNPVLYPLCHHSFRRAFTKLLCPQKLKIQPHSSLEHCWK
T2 sequence (Q9H3N8 whole entry): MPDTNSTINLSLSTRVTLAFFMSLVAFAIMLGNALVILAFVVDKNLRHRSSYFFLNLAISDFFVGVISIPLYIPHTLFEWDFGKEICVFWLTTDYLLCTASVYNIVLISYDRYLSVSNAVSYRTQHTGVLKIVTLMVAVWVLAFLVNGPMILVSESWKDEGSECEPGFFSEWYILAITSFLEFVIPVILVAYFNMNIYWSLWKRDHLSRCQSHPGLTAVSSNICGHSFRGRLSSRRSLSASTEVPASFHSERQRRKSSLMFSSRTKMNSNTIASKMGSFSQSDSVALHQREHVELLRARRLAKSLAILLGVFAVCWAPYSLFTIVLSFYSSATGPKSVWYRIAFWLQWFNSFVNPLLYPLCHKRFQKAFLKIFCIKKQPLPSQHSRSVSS

For orientation: solubility means the dissolved amount per volume that the medium holds. For orientation: melting point means the temperature, or range, at which the solid turns liquid. Consider `CCC1=C(C)C2=C(COC(=O)N3CCC(Cc4c[nH]cn4)CC3)c3c(C)c(CC)c(C)n3[B-](F)(F)[N+]2=C1C` [VUF25657, (2,8-Diethyl-5,5-difluoro-1,3,7,9-tetramethyl-5H-4λ^4,5λ^4-dipyrrolo [1,2-c:2′,1′-f][1,3,2]diazaborinin-10-yl)methyl 4-((1H-imidazol-4-yl)methyl)piperidine-1-carboxylate], for which the melting point is 148.7 to 150.7 °C. Besides, the “decrease in potency of cAMP inhibition compared with immepip” value on H3R [1] (caged state (dark) vs parent immepip, listed as 5 (VUF25657)) is recorded as more than 100 fold. The EC50 at H3R [1] (kept in dark, read-out: pEC50 In Dark (converted)) is 10 nM. In addition, at H3R [1] (irradiation at 560 nm vs dark), the “higher potency of cAMP inhibition after irradiation than caged state” value is listed as 20 fold. In data set [2] (setting [7]), the “concentration of immepip released” value was found to be 920 nM and the uncaging efficiency amounted to 29%. The “concentration of immepip released” value in data set [2] (illumination at 560 nm, at 20 min) amounted to 530 nM. Moreover, the Ki on H3R [3] (H3R, displacement of 2 nM [3H]NAMH, compound kept in dark (caged state), read-out: pKi In Dark (converted)) is 50.1 nM. On H3R [3] (caged state (dark) vs parent immepip), the “decrease in affinity for H3R compared with immepip” value was determined as 125 fold. Also, the “increase in H3R affinity after illumination in comparison to caged state” value on H3R [3] (illumination at 560 nm vs dark) came out at 12 fold. In addition, the solubility in data set [4] is 3.2 µM (≈ 1.68 µg/mL). Besides, the “absorption maximum (λmax)” value in data set [5] was determined as 551 nm.
On to `Cc1[nH]cnc1CCN` [4-methylhistamine, 2-(5-methyl-1H-imidazol-4-yl)ethan-1-amine, reference compound], for which the “pKi +560 nm” value at human H4R (H4R, displacement of 4 nM [3H]histamine, pre-irradiated at 560 nm (5 min for VUF25678)) is 7.2 ± 0.1 (3).
Usually Kd stands for the equilibrium constant for the complex coming apart. As for `CNCCc1cnc[nH]1` [[^3H]NAMH, N-α-[methyl-^3H] histamine], the Kd at H3R [6] was 1.37 nM.
For `CCC1=C(C)C2=C(COC(=O)NCCc3nc[nH]c3C)c3c(C)c(CC)c(C)n3[B-](F)(F)[N+]2=C1C` [VUF25678, (2,8-Diethyl-5,5-difluoro-1,3,7,9-tetramethyl-5H-4λ^4,5λ^4-dipyrrolo [1,2-c:2′,1′-f][1,3,2]diazaborinin-10-yl)methyl (2-(5-methyl-1H-imidazol-4-yl)ethyl)carbamate], the melting point was 108.8 to 116.3 °C. Besides, the solubility in data set [4] was determined as 3.2 µM (≈ 1.55 µg/mL). The “absorption maximum (λmax)” value in data set [5] is reported as 546 nm. Further, on human H4R (caged compound vs parent 4-methylhistamine), the “reduction in affinity for H4R on caging” value was 10–100 fold.
Take `c1nc(CC2CCNCC2)c[nH]1` [immepip, 4-((1H-imidazol-4-yl)methyl)piperidine, reference compound]: the EC50 on H3R [1] (pEC50 +560 nm, pre-irradiated at 560 nm for 3 min) is 0.0631 nM; on H3R [1] (pEC50 In Dark, kept in dark) it was 0.0316 nM. Further, the “pKi In Dark” value on H3R [3] (H3R, displacement of 2 nM [3H]NAMH, compound kept in dark (caged state)) is recorded as 9.4 ± 0.2 (4). Further, the “pKi +560 nm” value at H3R [3] (H3R, displacement of 2 nM [3H]NAMH, pre-irradiated at 560 nm (3 min for VUF25657)) is given as 9.4 ± 0.3 (4).

The values above are taken from publication PMC11053687, “Synthesis and Pharmacological Characterization of New Photocaged Agonists for Histamine H3 and H4 Receptors” (Pharmaceuticals, 2024).
